# Source: patent publication US10487313B2, “Efficient induction of definitive endoderm from pluripotent stem cells” (Novo Nordisk A/S, priority 2011, dated 2019)
# B1: Wnt3a: the Wnt receptor ligand Wnt3a (protein, UniProt P56704 19-352, looked up)
# Protein Wnt-3a: SYPIWWSLAVGPQYSSLGSQPILCASIPGLVPKQLRFCRNYVEIMPSVAEGIKIGIQECQHQFRGRRWNCTTVHDSLAIFGPVLDKATRESAFVHAIASAGVAFAVTRSCAEGTAAICGCSSRHQGSPGKGWKWGGCSEDIEFGGMVSREFADARENRPDARSAMNRHNNEAGRQAIASHMHLKCKCHGLSGSCEVKTCWWSQPDFRAIGDFLKDKYDSASEMVVEKHRESRGWVETLRPRYTYFKVPTERDLVYYEASPNFCEPNPETGSFGTRDRTCNVSSHGIDGCDLLCCGRGHNARAERRREKCRCVFHWCCYVSCQECTRVYDVHTCK
# Key:
# [1] = tested on: SA121 hES and chIPS4 iPS cells; assay: Quantitative real-time PCR of PS and DE markers (Brachyury, SOX17) during DE induction; format: cell-based, human; conditions: for Brachyury (PS) response timing compared to CHIR treatment: Wnt3a (200 ng/ml) or BIO (0.5 μM) 24 h instead of CHIR, upregulated D2
# Protocol: Human embryonic stem (hES) cells SA121 and chIPS4 (Cellartis) were grown on human fibronectin (Sigma) in DEF culture media (Cellartis) with 30 ng/ml bFGF (Invitrogen) and 10 ng/ml Noggin (Peprotech) in 6-96 well plates. Cells were single cell passaged with Rock inhibitor Y-27632 (Calbiochem) and seeded at a density of 40000 cells/cm2 for experiments. Experiments were initiated 4 d after passage.
# Confluent cultures were washed once in RPMI1640 (Invitrogen) before 24 hour pre-treatment with 0,5-7μM CHIR99021 (Stemgent) in RPMI. Control cells were left untreated in RPMI and D'Amour cells were either left in RPMI or treated with AA (Peprotech)+Wnt3a (R&D Systems) without pre-treatment depending on experimental setup.
# After 24 hours, pretreated and control cells were washed once with RPMI before adding 100 ng/ml AA in RPMI. D'Amour cells were also treated with 100 ng/ml AA but with 0,2% FBS instead of B27. 24 h later, 2% B27 (Invitrogen) was added to the AA media for 2-3 d. Control cells were treated with B27 to prevent cell death and D'Amour cells with 2% FBS according to published protocol. Media was changed every day.
# RNA samples were collected after 24 h pre-treatment (D1), after 1 day of AA treatment (D2) and after 1-2 d of AA+B27 treatment (D3-4). Total RNA was extracted with the Rneasy Plus Mini kit (Qiagen) and quantitative real-time PCR was performed using the StepOnePLus system (Applied Biosystems).
# Undifferentiated SA121 hES and chIPS4 iPS cells in DEF media (DO) were cultured either in RPMI without CHIR (Ctrl D1) or treated for 24 h with CHIR in RPMI (CHIR D1). The cells were then washed to ensure absence of CHIR and then both conditions were treated with 1 d AA (Ctrl and CHIR d2). […] T fold inductions after 24 h CHIR treatment spanned between 500-100000 compared to undifferentiated cells (d0). T protein levels were also confirmed with ICC (FIG. 2C).
# The efficiency levels for both T and SOX17 were highly robust (n>60) and confirmed with IHC and SOX17 quantifications (FIG. 2C and Table 2.). […] SOX17 expression peaked already after one day of AA treatment when cells were subjected to CHIR for 24 h before AA induction.
# (§1) hES SA121 and ChIPS4 cells were treated with either CHIR (3 μM), BIO (0.5 μM), Wnt3a (200 ng/ml) or AA alone (100 ng/ml) for 24 h prior to AA addition to show CHIR specificity (d1). Additionally, D'Amour (protocol as described in Kroon et al 2008) was tested in parallel.
# Chir was titrated at concentrations between 1-7 uM and analyzed after 24 h Chir treatment (D1) and after 2 d of following AA treatment (D3).
# hES SA121 cells = assay: CHIR specificity: cell survival after 24 h pre-treatment prior to AA addition; format: cell-based, human; conditions: 24 h pre-treatment with BIO (0.5 μM) or AA alone (100 ng/ml), then AA
# Protocol: as §1
# The data clearly illustrated that PS transition (upregulation of Brachyury) and DE induction (upregulation of SOX17) were both accelerated and much higher after CHIR treatment compared to pretreatment with growth factors such as AA and Wnt3a.
Molecule,Brachyury (PS) response timing compared to CHIR treatment [1],cell survival until day 3 (hES SA121 cells),"time of SOX17 induction peak after AA ([1]; CHIR-priming step 24 h then AA, versus AA alone) [days]"
O=C1Nc2cc(Br)ccc2/C1=C1/Nc2ccccc2/C1=N\O [BIO],delayed,did not survive until day 3,–
"AA: Activin A, growth factor used for definitive endoderm induction",–,did not survive until day 3,3 to 4
B1,delayed,–,–
